Our source for the IC50 values is patent US20240327429A1, “[1,3]Thiazolo[4,5-d]-pyrimidon-7-ones as inhibitors of NOX4” (Boehringer Ingelheim International GmbH, priority 2023, published 2024).

The assay concerns the target T1, human NOX3 (hNOX3) (Homo sapiens, UniProt Q9HBY0).
T1 construct: pLV-CMV-hNOX3-puro (NM_015718.3); host or cells: HEK293 (CLS GmbH), lentiviral transduction
T1 sequence (Q9HBY0 1-568): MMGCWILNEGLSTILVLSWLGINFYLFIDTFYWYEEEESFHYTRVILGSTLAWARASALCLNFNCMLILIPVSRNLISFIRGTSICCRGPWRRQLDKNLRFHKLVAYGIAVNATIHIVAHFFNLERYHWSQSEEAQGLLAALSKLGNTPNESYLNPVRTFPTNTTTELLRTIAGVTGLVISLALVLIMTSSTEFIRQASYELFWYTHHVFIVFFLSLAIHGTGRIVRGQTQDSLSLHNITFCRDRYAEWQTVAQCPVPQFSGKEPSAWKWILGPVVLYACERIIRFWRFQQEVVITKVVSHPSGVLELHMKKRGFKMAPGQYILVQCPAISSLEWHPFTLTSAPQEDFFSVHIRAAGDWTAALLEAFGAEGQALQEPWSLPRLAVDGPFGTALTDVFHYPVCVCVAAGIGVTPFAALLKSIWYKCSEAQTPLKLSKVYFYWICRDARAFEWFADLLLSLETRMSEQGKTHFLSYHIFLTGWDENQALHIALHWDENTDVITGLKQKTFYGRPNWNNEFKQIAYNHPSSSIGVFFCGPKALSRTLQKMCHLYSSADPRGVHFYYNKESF
T1 sequence (P13498 2-195 partner limits assumed): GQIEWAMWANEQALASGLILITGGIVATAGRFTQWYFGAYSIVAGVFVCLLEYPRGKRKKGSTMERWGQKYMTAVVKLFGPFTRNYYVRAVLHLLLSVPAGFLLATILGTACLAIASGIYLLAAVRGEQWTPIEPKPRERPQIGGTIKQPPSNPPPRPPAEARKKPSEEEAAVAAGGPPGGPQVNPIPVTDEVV
Description: NOX3 inhibition assay (L-012), HEK293 cells stably overexpressing human NOX3. It counts as cell-based. The settings on record: HEK293-hNOX3, PMA stimulated. The source says:
Plasmids are Purchased from Vectorbuilder. • for HEK-hNOX1 all necessary subunits are cloned accordingly: • pLV-CMV-hNOX1-puro (NM_007052.5) • pLV-CMV-hNOXO1-blas (NM_172168.3) • pLV-CMV-hp22phox-hygro (NM_000101.4) • pLV-CMV-hNOXA1-neo (NM_006647.2) • for HEK-hNOX3 • pLV-CMV-hNOX3-puro (NM_015718.3)
3rd generation lentiviral particles are produced in HEK293 suspension cells by transient transfection of three helper and expression plasmids. Crucial lentivirus supernatants are harvested, clarified by filtration and concentrated by precipitation. Lentivirus titers are determined in transducing units in (TU/mL) by transduction of HT1080 cells and colony forming assay. Parental HEK293 cells, purchased from CLS GmbH, are transduced with replication-incompetent 3rd generation lentiviral particles (MOI 2) and expanded for at least 2 weeks before cryopreservation of tested lots. During cultivation, medium is changed three times per week and cells are sub-cultured at least once per week. Selection antibiotics are added according to the plasmids (1 μg/ml puromycin, 1.5 μg/ml blasticidin, 200 μg/ml G418 and 100 μg/ml hygromycin).
Evaluation of the NOX4 inhibitors on NOX3 activity is assessed in HEK293 cells stably overexpressing human NOX3 (hNOX3).
Cells are seeded in 384 well plates for 2 days. […] Cells are then stimulated with PMA at 0.1 μM to induce NOX3-dependent ROS production. […] Luminescence is measured with an PHERAstar multimode reader.
As a reminder, the IC50 is the concentration at which inhibition is half-maximal. A high value points to weaker potency. `O=c1c2scnc2nc(SCc2ccc(C(F)(F)F)cc2)n1-c1cnc(O)c(F)c1` [Example 32, 6-(5-Fluoro-6-hydroxypyridin-3-yl)-5-((4-(trifluoromethyl)benzyl)thio)thiazolo[4,5-d]pyrimidin-7(6H)-one] had an IC50 of 38 µM. As for `O=c1c2scnc2nc(SCc2ccc(Br)cc2F)n1-c1cnc(O)c(F)c1` [Example 34], the figure is 63.6 µM; as for `Cc1cc(Cl)ccc1CSc1nc2ncsc2c(=O)n1-c1ccc(O)nc1` [Example 23], over 100 µM. As for `Cc1cc(Cl)ccc1CSc1nc2ncsc2c(=O)n1-c1ccc(O)nn1` [Example 62], the figure is over 100 µM; as for `O=c1c2scnc2nc(SCc2ccc(Cl)cc2Cl)n1-c1cnc(O)c(F)c1` [Example 39], 56.2 µM; as for `O=c1c2scnc2nc(SCc2ccc(C(F)(F)F)cc2)n1-c1ccc(O)nn1` [Example 66], over 100 µM. Compound `O=c1c2scnc2nc(SCc2ccc(F)cc2Br)n1-c1cnc(O)c(F)c1` [Example 44] displayed an IC50 of 73.1 µM. This counts as double-digit micromolar.

`O=c1c2scnc2nc(SCc2c(F)cc(F)cc2F)n1-c1c(F)cc(O)cc1F` [Example 13] came in with an IC50 of 16 µM.

The compound `O=c1c2scnc2nc(SCc2c(F)cc(F)cc2F)n1-c1ccc(O)nc1F` [Example 50, 6-(2-Fluoro-6-hydroxypyridin-3-yl)-5-((2,4,6-trifluorobenzyl)thio)thiazolo[4,5-d]-pyrimidin-7(6H)-one] displayed an IC50 of 64.7 µM. Against the preceding compound, the IC50 is about 4-fold higher. As for `O=c1c2scnc2nc(SCc2ccc(Cl)cc2F)n1-c1cnc(O)c(F)c1` [Example 35], the figure is 39.9 µM; as for `Cc1cc(F)cc(C)c1CSc1nc2ncsc2c(=O)n1-c1cc(F)c(O)c(F)c1` [Example 4], 4.1 µM. As for `O=c1c2scnc2nc(SCc2c(F)cc(F)cc2F)n1-c1ccc(O)cc1F` [Example 14], the figure is 25.5 µM; as for `Cc1cc(F)ccc1CSc1nc2ncsc2c(=O)n1-c1cnc(O)nc1` [Example 58], over 100 µM; as for `Cc1cc(F)ccc1CSc1nc2ncsc2c(=O)n1-c1cc(F)c(O)c(F)c1` [Example 9], 3.7 µM.

For the compound `Cc1cc(F)cc(C)c1CSc1nc2ncsc2c(=O)n1-c1cnc(O)nc1` [Example 55], the IC50 is over 100 µM. Next, `O=c1c2scnc2nc(SCc2ccc(Cl)cc2)n1-c1cc(F)c(O)c(F)c1` [Example 5]: over 100 µM; `O=c1c2scnc2nc(SCc2c(F)cc(F)cc2F)n1-c1cnc(O)c(F)c1` [Example 31, 6-(5-Fluoro-6-hydroxypyridin-3-yl)-5-((2,4,6-trifluorobenzyl)thio)thiazolo[4,5-d]-pyrimidin-7(6H)-one]: over 100 µM.

Compound `O=c1c2scnc2nc(SCc2ccc(Cl)cc2F)n1-c1ccc(O)nn1` [Example 61, 5-((4-Chloro-2-fluorobenzyl)thio)-6-(6-hydroxypyridazin-3-yl)thiazolo[4,5-d]pyrimidin-7(6H)-one] yielded an IC50 of 28.2 µM. As for `O=c1c2scnc2nc(SCc2c(F)ccc(F)c2F)n1-c1cnc(O)c(F)c1` [Example 45], the IC50 came to 71.5 µM.

`O=c1c2scnc2nc(SCc2c(F)cc(F)cc2F)n1-c1cnc(O)cc1F` [Example 49, 6-(4-Fluoro-6-hydroxypyridin-3-yl)-5-((2,4,6-trifluorobenzyl)thio)thiazolo[4,5-d]pyrimidin-7(6H)-one] had an IC50 of over 100 µM.
